In US7196063B1, “Peptides and pharmaceutical compositions comprising same” (NST NeuroSurvival Technologies Ltd., priority 1999, dated 2007):
Where two headings read alike, the source gives them in different places.

Tests used:
HUVEC cells = assay: Binding to endothelial HUVEC cells by FACS analysis; assay type: cell-based, Human
Experimental: Binding detection was done using flow cytometric analysis to populations of HUVEC cells.
HUVEC (CC-2517, obtained from Clonetics, Walkersville, Md.) were grown on tissue culture flasks in Endothelial cell medium (EGM-2 Bulletkit, CC 3162, Clonetics). Mid-confluent cultures were harvested using Trypsine/EDTA solution (CC-5012, Clonetics). The cells were rinsed twice with TBS containing 2% BSA and kept on ice. Samples of 10^6 cells were tested for binding.
Cells were washed in 1 ml of TBS-BSA and centrifuged as before and then suspended in 100 μl of TBS-BSA containing streptavidin conjugated to fluorescein (FITC) for detection of the bound biotinylated compound. […] Thereafter, 400 μl of TBS-BSA were added and cells were entrifuged and re-suspended in 400 μl of TBS and taken for FACS analysis.

thrombin = biological target: T1, thrombin (Homo sapiens, UniProt P00734); assay: Direct effect on thrombin activity in vitro; assay type: biochemical; conditions: commercially available thrombin and chromogenic substrate; not shown
T1 construct: purchased

apoptotic HeLa cells = conditions: 500 nM, FACS
Experimental: Detection of binding to apoptotic HeLa cells was performed according to the following procedure: Cells were plated on tissue culture plates at a density of 5×10^6 cells/10 cm dish, and grown in their normal medium at 37° C. for 18 hr. The medium was replaced with a medium containing 2% FCS and 500 μM of dopamine. Eighteen hours later, floating cells that were identified as advanced apoptotic cells were collected and transferred to a 50 ml tube. To evaluate the level of apoptosis in the cultures, aliquots of 10^5 cells from the cultures were plated on 48 wells plate and stained with Hoechst 33342 dye (Molecular Probes) at a concentration of 1 mg/ml for 20 min (as described above). Non-treated cells served as control. For collecting the non-treated cells, the medium of the culture was aspirated and discarded, the cells were rinsed with growing medium and 2 ml of medium were added to the culture dish. The cells were detached from the culture dish using a cell scraper and separated to single cells by passage through a syringe with a 18G needle.
The reactions were incubated at room temperature for 40 minutes and then 400 μl of TBS was added and cells were collected by centrifugation at 3000×g for 3 minutes. Cells were washed in 1 ml of TBS and centrifuged as before and detecting of the bound compound was performed using 100 μl of TBS containing streptavidin conjugated to fluorescein (FITC) (016-090-084 from Jackson ImmunoResearch lab. Inc.). Incubation was for 15 minutes at room temperature in the dark. Thereafter, 400 μl of TBS was added and cells were centrifuged and washed again with 1 ml of TBS as before, re-suspended in 400 μl of TBS and then taken for FACS analysis. The FACS analysis was performed on Beckton-Dickinson cell sorter, using lysis II software. Excitation was at 488 nm and emission for FITC detection was at 535 nm and for PI detection at 585 nm.

With “Myristate-KVSFFCKNKEKKC-K (SEQ ID NO:1) (biotin) [NST513]” the “binding to HUVEC cells” value (HUVEC cells; 500 nM) was “strong binding”, the “cells FITC positive” value (HUVEC cells; 500 nM) was “About 70%” and the “fraction of HUVEC cells labeled” value (HUVEC cells; 250 μM) was “about 50%”. For the same substance, the “direct effect on thrombin activity” value (thrombin) was “no direct inhibitory effect on thrombin activity”, the “binding to apoptotic versus control HeLa cells” value (apoptotic HeLa cells) was “strong labeling of apoptotic versus control cells” and the “increase in the percentage of apoptotic cells labeled, as compared to non-apoptotic cells” value (apoptotic HeLa cells; PI and FITC) was 5.5 fold. The “binding to apoptotic versus control HeLa cells” value (apoptotic HeLa cells; listed as NST313) was “specifically binds to apoptotic cells”.
